# Where two headings read alike, the source gives them in different places.
# What was measured:
# [1] = tested on: Staphylococcus aureus ATCC43300; assay: Systemic blood infection animal model; assay type: in vivo, mice; conditions: for number of colonies of liver and kidney: 3 times a day, 7 days
# Procedure: (2) Sterile phosphate buffered saline (PBS) was used to prepare a 1×10^7 CFU/mL Staphylococcus aureus ATCC43300 bacterial suspension for later use; the drug dosage required for mice was calculated for each group, and solutions of Example 34 and solvent for gavage (400 or 200 μL of Tween 80 was mixed with Example 34, grinded with an agate mortar until it became transparent, and then 0.5% sodium carboxymethyl cellulose solution was added to reach the required concentration and volume of the test drug) were prepared for later use.
# (3) Except for the blank group, 100 μL of the bacterial suspension prepared in step 2 was injected into the tail vein of each mouse.
# (4) 2 hours after the challenge, the drugs prepared in step 2 were administered by oral gavage according to the groups, 3 times a day, 200 uL each time, with an interval of 8 hours, for a total of 7 days. Mice were administered by oral gavage with the drug solvent for the model group and the blank group.
# (5) 8 h after the last administration, mice were euthanized by cervical dislocation, disinfected with 75% alcohol, and then necropsied under sterile conditions. The kidneys and livers were harvested, observed and photographed, and the weight was recorded.
# (6) The kidneys and livers were placed in a sterile glass grinder and sterile PBS in a volume ten times the weight of the organs was added and grinded. The grinding solutions were taken out, 10-fold serially diluted, smeared to a TSA solid culture medium, and incubated at 37° C. for 16 hours, then the colonies were counted. The number of colonies of the organs was calculated to evaluate the therapeutic effect.
# E. coli ATCC 25922 = assay: In vitro antibacterial activity assay (MIC, broth dilution); assay type: cell-based; conditions: Escherichia coli, ATCC25922
# Source text: (§1) The method used to indicate the activity of the compounds in this example is to record the minimum inhibitory concentration (MIC) of the compounds against bacteria. The specific experimental method is as follows:
# (§2) 1. The bacterial liquid cultured from a single colony was taken, and diluted into autoclaved CAMHB broth in a ratio of 1:1000, and mixed well.
# (§3) 2. The prepared drug solution was filtered through a sterile 0.22 µm syringe filter and placed in a sterile EP tube for later use.
# (§4) 3. A 96-well plate was taken, and 20 µL of drug solution ([…]) was added to each well in the first column of the 96-well plate. Then, 180 µL of diluted bacterial liquid was added and mixed well (Perform 3 replicate rows for each drug).
# (§5) The same process was performed for the hydrochloride drug.
# (§6) 4. 100 μL of diluted bacterial liquid was added to each well in the remaining 11 columns of the 96-well plate. Drugs are the same as above.
# (§7) 5. Serial dilution: 100 μL of liquid was taken from the first column to the second column, mixed well, then 100 μL of liquid was taken from the second column to the third column, mixed well, and so on, sequentially diluting down to the last column (column 12). After mixing column 12 well, 100 μL of liquid thereof was discarded. The drug concentration in each well was decreased by two-fold serially (the concentration in the first well is 40 μg/mL).
# (§8) 6. Blank CAMHB broth without added bacteria liquid was added to 3 blank wells in the 96-well plate, as negative control.
# (§9) 7. The diluted bacterial liquid was added to 3 blank wells in the 96-well plate, as positive control.
# (§10) 8. Incubated at 37° C. for 16 hours.
# (§11) 9. Results reading: the minimum inhibitory concentration is the minimum drug concentration at which no bacterial growth is visible to the naked eye and without turbidity.
# S. aureus ATCC 43300 = assay: as above; assay type: cell-based; conditions: Staphylococcus aureus
# Source text: as §1, §2, §3, §4, §5, §6, §7, §8, §9, §10, §11
# [2] = tested on: Staphylococcus aureus ATCC43300; assay: Resistance test of bacteria against compounds (serial induction, 21 days); assay type: cell-based
# Procedure: This example provides a resistance test of bacteria against compounds, and the specific experimental method is as follows.
# 1. […] It was ensured that among the 6 final concentrations of the drug diluted into the wells, some were higher than the original MIC of the bacteria and some were lower than the original MIC of the bacteria.
# 2. Preparation of bacterial liquid: 10 mL of culture medium was taken and added to a sterilized plate using a pipette, then 100 µL of the above-mentioned passaged bacterial liquid was added, and mixed well for later use.
# 3. The above-mentioned diluted bacterial liquid was taken and added to a 96-well plate using a pipette, 180 μL per well, 3 wells per group, 6 groups in total. 20 μL of drug solution was added to each well (note: it is necessary to replace the pipette tip each time the drug is added), so that the final drug concentrations were […], respectively. The well with 200 μL of diluted bacterial liquid was used as the positive control well, and the well with 200 μL of culture medium was used as the negative control well.
# The test object was Staphylococcus aureus (S. aureus).
# Hela = assay: In vitro anticancer activity test (MTT cell proliferation); assay type: cell-based; conditions: Homo sapiens, average proliferation inhibition rate at the dosage of 40 μM, read-out: Hela Average inhibition rate %
# Procedure: (§12) The anticancer activity of the compounds was tested using an in vitro cancer cell tests. The specific test method is as follows:
# (§13) 1. Cell recovery and culture method: the cryovial was taken out from the liquid nitrogen container firstly, soaked directly in 37° C. warm water, and shaked from time to time to let it thaw as soon as possible. Then, the cryovial was transferred to a clean bench, and the lid was open. The cell suspension was taken into a centrifuge tube using a rubber-tipped dropper and more than 10 times the culture medium was added, mixed well, and centrifuged at 50 g for 5 minutes. Then, the supernatant was discarded, complete culture medium containing 10% fetal bovine serum was added to resuspend the cells, the cells was counted, the cell density was adjusted, and then inoculated into a culture bottle. The culture bottle was placed in a cell culture incubator at 5% CO2 and 37° C. The complete culture medium was replaced once the next day and the culture was continued.
# (§14) 2. Cell passaging method: adherent cells in the logarithmic growth phase were placed in a clean bench, the original culture medium was discarded, and washed three times with 1×PBS. An appropriate amount of 0.25% trypsin digestion solution was added to moisten the cells, and then the trypsin solution was aspirated. The cells were placed in a cell culture incubator at 5% CO2 and 37° C. for digestion for a suitable time, and observed under a microscope. When 90% of the cells become round, the cells were moved immediately to the clean bench and complete culture medium was added to terminate digestion. Then, the cells were dislodged by pipetting up and down with a rubber-tipped dropper to single cells. The cells were counted, and the cell density was adjusted. The cells were inoculated into a suitable culture bottle or dish, added enough complete culture medium, and placed in a cell culture incubator at 5% CO2 and 37° C. for static culture.
# (§15) For suspension cells in the logarithmic phase, the original culture medium was directly centrifuged at 50 g for 5 minutes, the supernatant was discarded, and the cells were washed once with PBS and centrifuged. After discarding the supernatant, the complete culture medium was added and the cells were dispersed using a rubber-tipped dropper. The cells are counted, and the cell density was adjusted. The cells were inoculated into appropriate culture bottles or culture dishes, and sufficient complete culture medium was added, and the cells were cultured in a cell culture incubator at 5% CO2 and 37° C.
# (§16) 3. Cell proliferation assay: cells in good state in logarithmic phase were taken and appropriate amount of the cells was inoculated into 96-well plates according to the cell passage treatment method, with each well containing 180 μL complete medium. After the cells growth was recovered and the number of cells in each well is 5000±500, a drug was added for treatment.
# (§17) After drug treatment during the experimental time, MTT solution with a final concentration of 0.5 mg/mL was added to each well, and placed in a cell culture incubator at 5% CO2 and 37° C. to allow a fully reaction of MTT with cells. After 4 hours, the solution in the 96-well plate was discarded, 100 µL of DMSO was added, and shaked to dissolve the formazan precipitated at the bottom of the plate, and the absorbance value of samples was detected at a wavelength of 570 nm using a microplate reader. Calculation method of cell viability rate:
# Table 4 lists some compounds that have inhibitory effects against both of bacteria and cancer cells. In the table, the inhibitory effects against cancer cells are shown: the average proliferation inhibition rate (%) against cancer cells at the dosage of 40 μM.
# P. aeruginosa ATCC 27853 = assay: In vitro antibacterial activity assay (MIC, broth dilution); assay type: cell-based; conditions: Pseudomonas aeruginosa, ATCC27853; Table 2; read-out: G- bacteria MIC P. aeruginosa ATCC 27853
# Source text: as §1, §2, §3, §4, §5, §6, §7, §8, §9, §10, §11
# A. baumannii ATCC 17978 = assay: as above; assay type: cell-based; conditions: Acinetobacter baumannii, ATCC17978; Table 2; read-out: G- bacteria MIC A. baumannii ATCC 17978
# Source text: as §1, §2, §3, §4, §5, §6, §7, §8, §9, §10, §11
# E. feacium ATCC 700221 = assay: as above; assay type: cell-based; conditions: read-out: G+ bacteria MIC E. feacium ATCC 700221
# Source text: as §1, §2, §3, §4, §5, §6, §7, §8, §9, §10, §11
# [3] = tested on: human acute monocytic leukemia cell THP-1; assay: In vitro anticancer activity test (MTT cell proliferation); assay type: cell-based
# Procedure: as §12, §13, §14, §15, §16
# as §17, with “rate: […]” for “rate:”
# [4] = tested on: human acute myeloid leukemia cell MOLM-13; assay: as above; assay type: cell-based
# Procedure: as §12, §13, §14, §15, §16
# as §17, with “rate: […]” for “rate:”
# [5] = tested on: human liver cancer cell BLE-7402; assay: as above; assay type: cell-based
# Procedure: as §12, §13, §14, §15, §16
# as §17, with “rate: […]” for “rate:”
# [6] = tested on: human renal cancer cell OS-RC-2; assay: as above; assay type: cell-based
# Procedure: as §12, §13, §14, §15, §16
# as §17, with “rate: […]” for “rate:”
# [7] = tested on: human bladder transitional cell carcinoma cell T24; assay: as above; assay type: cell-based; conditions: T-24
# Procedure: as §12, §13, §14, §15
# [8] = tested on: human epidermal carcinoma cell A431; assay: as above; assay type: cell-based; conditions: A-431
# Procedure: as §12, §13, §14, §15
# [9] = tested on: human Burkitt's lymphoma cell Raji; assay: as above; assay type: cell-based
# Procedure: as §12, §13, §14, §15, §16
# as §17, with “rate: […]” for “rate:”
# [10] = Table 2, read-out: G- bacteria MIC E. coli ATCC 25922
# [11] = ATCC43300, Table 1, read-out: G+ bacteria MIC S. aureus ATCC 43300
smiles,measurement,setting,value
"O=C(O)c1cn(C2CC2)c2cc(N3CCNCC3)c(F)cc2c1=O [Ciprofloxacin, reference compound]",number of colonies of liver and kidney,[1]; 4 mg/kg oral gavage,not apparent
same,MIC,"E. coli ATCC 25922; Table 4, read-out: E. coli ATCC 25922 MIC",≤ 1 µg/mL
same,MIC,"S. aureus ATCC 43300; ATCC43300, Table 4, read-out: S. aureus ATCC 43300 MIC",≤ 1 µg/mL
same,resistance of bacteria in the subsequent culture,"[2]; S. aureus ATCC43300, 21 days",increased rapidly
same,MIC at the end of the resistance experiment,"[2]; period of 21 days, S. aureus ATCC43300",128 µg/mL
same,inhibition at 40 µM,Hela,≤ 10%
"COc1c(-c2ccc(NC(=O)C(F)(F)F)c(C#N)c2)c(F)cc2c(=O)c(C(=O)O)cn(C3CC3)c12 [Example 8, 7-(3-cyano-4-(2,2,2-trifluoroacetamido)phenyl)-1-cyclopropyl-6-fluoro-8-methoxy-4-oxo-1,4-dihydroquinolin-3-carboxylic acid]",MIC,E. coli ATCC 25922; [10],≤ 0.1 µg/mL
same,MIC,S. aureus ATCC 43300; [11],≤ 0.1 µg/mL
same,MIC,P. aeruginosa ATCC 27853,0.1 to 1 µg/mL
same,MIC,A. baumannii ATCC 17978,0.1 to 1 µg/mL
same,MIC,E. feacium ATCC 700221,1 to 8 µg/mL
"O=C(O)c1cn(C2CC2)c2cc(-c3ccc(S(=O)(=O)NCCCl)cc3)c(F)cc2c1=O [Example 15, 7-(4-(N-(2-chloroethyl)sulfamoyl)phenyl)-1-cyclopropyl-6-fluoro-4-oxo-1,4-dihydroquinolin-3-carboxylic acid]",MIC,"S. aureus ATCC 43300; ATCC43300, read-out: G+ bacteria MIC S. aureus ATCC 43300",≤ 0.1 µg/mL
same,MIC,E. feacium ATCC 700221,> 8 µg/mL
"O=C(O)c1cn(C2CC2)c2nc(-c3ccc(S(=O)(=O)NCCO)cc3)c(F)cc2c1=O [Example 18, 1-cyclopropyl-6-fluoro-7-(4-(N-(2-hydroxyethyl)aminosulfonyl)phenyl)-4-oxo-1,4-dihydro-1,8-naphthyridine-3-carboxylic acid]",MIC,E. coli ATCC 25922; [10],≤ 0.1 µg/mL
same,MIC,S. aureus ATCC 43300; [11],≤ 0.1 µg/mL
same,MIC,P. aeruginosa ATCC 27853,0.1 to 1 µg/mL
same,MIC,A. baumannii ATCC 17978,0.1 to 1 µg/mL
same,MIC,E. feacium ATCC 700221; Table 1,1 to 8 µg/mL
"CCCCCNS(=O)(=O)c1ccc(-c2c(F)cc3c(=O)c(C(=O)O)cn(C4CC4)c3c2Cl)cn1 [Example 20, 8-chloro-1-cyclopropyl-6-fluoro-4-oxo-7-(6-(N-pentylaminosulfonyl)pyridine-3-yl)-1,4-dihydroquinolin-3-carboxylic acid]",MIC,S. aureus ATCC 43300; [11],≤ 0.1 µg/mL
same,MIC,E. feacium ATCC 700221; Table 1,> 8 µg/mL
"O=C(O)c1cn(C2CC2)c2c(Cl)c(-c3ccc(S(=O)(=O)NCCCC(F)(F)F)nc3)c(F)cc2c1=O [Example 34, 8-chloro-1-cyclopropyl-6-fluoro-4-oxo-7-(6-(N-(4,4,4-trifluorobutyl)sulfamoyl)pyridin-3-yl)-1,4-dihydroquinolin-3-carboxylic acid]",IC50,[3],1 to 10 µM
same,IC50,[4],1 to 10 µM
same,IC50,[5],1 to 10 µM
same,IC50,[6],1 to 10 µM
same,number of colonies of liver and kidney,[1]; 1 mg/kg oral gavage,significant statistical difference from the control group
same,number of colonies of liver and kidney,[1]; 4 mg/kg oral gavage,good antibacterial effect
same,antibacterial effect in the liver and kidney (number of colonies of organs),[1]; compared with the positive drug ciprofloxacin,very significant antibacterial effect
same,IC50,[7],1 to 10 µM
same,IC50,[8],1 to 10 µM
same,initial MIC compared with marketed drugs,"[2]; start of resistance test, S. aureus ATCC43300",superior to the marketed drugs ciprofloxacin and vancomycin
"O=C(O)c1cn(C2CC2)c2cc(N3CCNCC3)c(F)cc2c1=O [Reference compound 2 (Ciprofloxacin), reference compound]",IC50,[3],> 100 µM
same,IC50,[4],> 100 µM
same,IC50,[5],> 100 µM
same,IC50,[6],> 100 µM
"Cc1c(-c2cnc(N)nc2)c(F)cc2c(=O)c(C(=O)O)cn(C3CC3)c12 [compound 1, reference compound]",IC50,[9],≥ 40 µM

# — US20260224555A1, “NEW PHENYLQUINOLONE COMPOUND HAVING ANTIBACTERIAL AND ANTI-CANCER FUNCTIONS AND PREPARATION THEREOF” (AlphaMol Science Ltd (Shanghai), priority 2022, published 2026)
